Measurements as given in patent publication US20190167647A1, “PHARMACEUTICAL COMPOSITION FOR STROKE TREATMENT BASED ON AMPK INHIBITION” (INDUSTRY ACADEMY COOPERATION FOUNDATION OF SEJONG UNIVERSITY, priority 2016, published 2019).

Legend:
[1] = Calcium chelation with Fura-2 dye (test tube); type: physicochemical; conditions: Fura-2 dye, test tube
Procedure: In order to determine whether the above result is obtained by the chelation of Ca^2+ ions other than the drug #28, protective effects of the drug #28 (10 to 60 μM) after treatment using ionomycin, which is a calcium ion permeable carrier (‘calcium ionophore’) directly increasing the intracellular calcium concentration, were under observation. Further, using a Fura-2 dye that is combined with calcium to represent fluorescence, it was monitored whether the drug #28 is combined with calcium on a test tube and represents chelating effects.

[2] = tested on: mouse cortical cultures; assay: TPEN-induced caspase-3 activity; type: cell-based
Source text: (§1) Generally, application of TPEN as a zinc chelator easily flowing into the cells causes a cell death in the form of typical apoptosis (EDTA is not introduced into the cells). When adding zinc to the above treatment, intracellular free zinc ions are retained thus to reduce neuronal death and further reduce caspase-3 protease activity in the apoptosis process. Under expectation such that: the drug #28 and clioquinol may not only serve as a chelator but also play a role of an ion permeable carrier; these drugs flow into cells as combined with zinc; thereafter, the zinc is removed from the drug because a concentration of free zinc in the cytoplasm is too low; therefore, the concentration of free zinc in the cytoplasm is increased thus to reduce neurotoxicity due to TPEN, caspase-3 activity and neurotoxicity (LDH secretion) were under observation after treatment using zinc, the drug #28 and clioquinol.

[3] = tested on: mouse cortical cultures; assay: TPEN-induced neurotoxicity (LDH secretion); type: cell-based
Source text: as §1

[4] = tested on: neuronal cells; assay: H2O2 neurotoxicity with chelators (LDH secretion); type: cell-based
Procedure: There is reported that intracellular free zinc is increased in a neurotoxicity mechanism due to hydrogen peroxide, wherein hydrogen peroxide toxicity is reduced when the cells are treated using the zinc chelator. […] Therefore, in order to monitor whether effects of the drug #28 are associated with a reduction of zinc in the above case, the neuronal cells were treated with hydrogen peroxide (H2O2), a zinc chelator such as TPEN or CaEDTA and a calcium chelator such as ZnEDTA, followed by monitoring neurotoxicity (LDH secretion).

[5] = tested on: cultured cerebral cortex neurons of a mouse; assay: H2O2-induced neurotoxicity, propidium iodide staining; type: cell-based; conditions: H2O2 100 μM 4.5 hours; 10 μM drug; excepted drugs = no significant inhibition
Procedure: More particularly, the neurotoxicity model for observation of neurotoxicity inhibitory effects includes excitotoxicity, oxidative damage, etc. which are classified as a cause mechanism of stroke. NMDA (N-methyl-D-aspartate) was used as the excitotoxicity model while the oxidative model used herein was a hydrogen peroxide (H2O2) toxicity model. First, using NMDA (50 μM) or H2O2 (100 μM), the cultured cerebral cortex neurons of a mouse were treated for 1.5 hours and 4.5 hours, respectively, resulting in induction of neurotoxicity. The neurons were further treated with the selected 12 drugs (10 μM) as well as the existing selected drug #28 (20 μM). Then, after staining the neurons with propidium iodide (PI), the stained cells were quantified to determine a degree of cell death.

[6] = tested on: mouse; conditions: administered to a mouse; cited from earlier work
[7] = Free zinc concentration by fluorescent dye (Newport green DCF, FluoZin-3); type: physicochemical; conditions: 20 μM; Newport green DCF or FluoZin-3
Procedure: Further, in conjunction with clioquinol (20 μM) or the drug #28 (20 μM), a zinc fluorescent dye, i.e., Newport green DCF (0.5 μM, Kd(Zn)=1 uM) or FluoZin-3 (0.5 μM, Kd(Zn)=15 nM) was used for measurement of free zinc concentration.

[8] = tested on: cultured cerebral cortex neurons of a mouse; assay: Zinc ion permeable carrier test, ZinPyr-1; type: cell-based; conditions: #28 0.05 μM, clioquinol 0.5 μM
Procedure: ZinPyr-1 is a fluorescent dye which has a lower Kd value than that of FluoZin-3 and is used to measure a change in a zinc concentration even at a lower concentration. Whether the drug #28 of the present invention can act as an ion permeable carrier was under observation using ZinPyr-1. More particularly, the cultured cerebral cortex neurons of a mouse were treated with ZinPyr-1 then treated with the drug #28 (0.05 μM) and clioquinol (0.5 μM) in a typically used neuronal cell culture medium, so as to determine a change in zinc ion concentrations in the neurons. Also, a non-treatment group was used as a control group.
Therefore, after adding a further 0.5 μM concentration of zinc to the cell culture medium, a change in zinc concentration in the cells was under observation.

[9] = tested on: cerebral cortex neurons; assay: Western blot of Bim and caspase-3 after zinc treatment; type: cell-based, mouse; conditions: 300 μM ZnCl2, 20 μM compound
Procedure: More particularly, the cerebral cortex neurons were treated with 300 μM zinc (ZnCl2) for 2, 3, 4, 5 and 6 hours to induce zinc toxicity. From each sample, protein was separated and subjected to Western blot and treatment using 20 μM compound C (+Cpd C) as an AMPK inhibitor, so as to identify a relationship between the zinc toxicity and apoptosis.

[10] = target: T1, recombinant AMPK (α2/β1/γ1) (Homo sapiens, UniProt P54646); assay: AMPK enzymatic activity assay (CycLex kit); type: biochemical; conditions: 10 μM
T1 construct: purchased CycLex, Japan
Procedure: More particularly, AMPK enzymatic activity was measured by an AMPK activity assay kit (CycLex, Japan) and recombinant AMPK (α2/β1/γ1 CycLex, Japan).

[11] = tested on: cultured cerebral cortex neurons; assay: Zinc neurotoxicity, TUNEL staining and LDH assay; type: cell-based, mouse; conditions: 300 μM ZnCl2 10 min, 10 hours later; 20 μM compound
Procedure: Cerebral cortex neurons of a mouse used in the present invention were extracted from the mouse embryos brain and cultured, followed by further culturing the same using a Dulbecco's modified Eagle's medium (DMEM, Gibco, Grand Island, N.Y., US) containing 5% fetal bovine serum (FBS) and 5% horse serum (HS) under conditions of 95% humidity, 5% CO2 and 37° C. temperature. For activation and differentiation of the above cells, these cells were proliferated at a density of 2×10^4 cells in 24-well tissue culture plate. Further, prior to treatment using zinc and the compounds, the cells were incubated in MEM medium without FBS and HS.
More particularly, the cultured cerebral cortex neurons according to the embodiment of the present invention were treated with 300 μM zinc (ZnCl2) for 10 minutes then removed. 10 hours later, cytotoxicity was observed by TUNEL staining or LDH (Lactate Dehydrogenase). Further, these cells were treated with AMPK inhibitor, that is, 20 μM compound C (+Cpd C, Tocris), followed by observation whether neurotoxicity is reduced or not.

T1 sequence (P54646 whole entry): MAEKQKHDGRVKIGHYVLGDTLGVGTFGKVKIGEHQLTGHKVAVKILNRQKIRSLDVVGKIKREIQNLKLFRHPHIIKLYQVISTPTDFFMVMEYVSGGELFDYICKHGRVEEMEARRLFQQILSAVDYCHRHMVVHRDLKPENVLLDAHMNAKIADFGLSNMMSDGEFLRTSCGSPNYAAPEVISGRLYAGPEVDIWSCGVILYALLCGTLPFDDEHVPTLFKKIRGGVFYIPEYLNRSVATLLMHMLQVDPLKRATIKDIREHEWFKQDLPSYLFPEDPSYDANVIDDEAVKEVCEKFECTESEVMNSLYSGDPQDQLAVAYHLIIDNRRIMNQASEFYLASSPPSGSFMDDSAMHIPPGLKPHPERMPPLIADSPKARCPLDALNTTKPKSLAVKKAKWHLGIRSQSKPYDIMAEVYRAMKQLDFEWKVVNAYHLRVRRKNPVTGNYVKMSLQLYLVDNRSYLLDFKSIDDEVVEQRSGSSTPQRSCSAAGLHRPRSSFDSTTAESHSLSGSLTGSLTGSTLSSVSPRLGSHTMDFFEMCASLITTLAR
T1 sequence (Q9Y478 whole entry partner): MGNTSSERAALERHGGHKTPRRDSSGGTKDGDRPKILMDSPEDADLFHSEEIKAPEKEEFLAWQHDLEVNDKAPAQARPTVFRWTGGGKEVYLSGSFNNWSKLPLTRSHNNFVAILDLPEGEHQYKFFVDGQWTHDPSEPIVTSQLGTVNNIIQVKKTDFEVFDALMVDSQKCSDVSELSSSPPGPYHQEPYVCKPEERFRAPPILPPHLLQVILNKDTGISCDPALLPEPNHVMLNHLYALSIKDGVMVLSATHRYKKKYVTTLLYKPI
T1 sequence (P54619 whole entry partner): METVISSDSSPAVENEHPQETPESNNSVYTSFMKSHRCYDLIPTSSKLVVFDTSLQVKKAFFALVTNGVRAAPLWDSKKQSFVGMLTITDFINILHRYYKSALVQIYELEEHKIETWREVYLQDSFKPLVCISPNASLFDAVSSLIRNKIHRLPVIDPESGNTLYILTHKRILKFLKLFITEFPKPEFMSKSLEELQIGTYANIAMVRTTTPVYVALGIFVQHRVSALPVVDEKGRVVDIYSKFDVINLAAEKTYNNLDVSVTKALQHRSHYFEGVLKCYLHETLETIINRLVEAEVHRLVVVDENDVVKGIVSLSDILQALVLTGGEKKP

## O=C(O)CN(CCN(CC(=O)O)CC(=O)O)CC(=O)O [EDTA, reference compound]
[1]
  chelating effects for calcium: good chelating effects at a low calcium concentration

## [Cl-].[Cl-].[Zn+2] [zinc]
[2]
  caspase-3 activity induced by TPEN: significantly reduce caspase-3 activity induced by TPEN
[3]
  neurotoxicity by TPEN: decrease neurotoxicity by TPEN

## c1ccc(CN(CCN(Cc2ccccn2)Cc2ccccn2)Cc2ccccn2)nc1 [TPEN, N,N,N′,N′-tetrakis (2-pyridylmethyl) ethylenediamine]
[4]
  neurotoxicity caused by hydrogen peroxide: reduced neurotoxicity caused by hydrogen peroxide

## Cc1cccc(NC2=NC(=O)/C(=C/c3c[nH]c4ccccc34)S2)c1C [Compound 4B04, (5Z)-2-[(2,3-Dimethylphenyl)amino]-5-(1H-indol-3-ylmethylene)-1,3-thiazol-4(5H)-one]
[5]
  inhibition of H2O2-induced neurotoxicity: other than two drugs

## C=C1C(=O)OC(CCCCCCCC)C1C(=O)O (stereo not drawn) [Compound C75]
[6]
  size of infarcted part: significantly reduces a size of an infracted part

## Oc1c(I)cc(Cl)c2cccnc12 [clioquinol, reference compound]
[2]
  caspase-3 activity induced by TPEN: significantly reduce caspase-3 activity induced by TPEN
[3]
  neurotoxicity by TPEN: decrease neurotoxicity by TPEN
[7]
  free zinc ions: reduce free zinc ions
[8]
  increase of zinc in neurons, general culture conditions: an increase of zinc by clioquinol was observed

## O=C([O-])CN(CCN(CC(=O)O)CC(=O)O)CC(=O)[O-].[Zn+2] [ZnEDTA]
[4]
  neurotoxicity caused by hydrogen peroxide: did not inhibit toxicity

## Cc1ccccc1NC1=NC(=O)/C(=C/c2c[nH]c3ccccc23)S1 [Compound 4B03, (5Z)-5-(1H-Indol-3-ylmethylene)-2-[(2-methylphenyl)amino]-1,3-thiazol-4(5H)-one]
[5]
  inhibition of H2O2-induced neurotoxicity: other than two drugs

## c1cc(-c2cnn3cc(-c4ccc(OCCN5CCCCC5)cc4)cnc23)ccn1 [Compound C]
[9]
  increase in Bim caused by zinc toxicity: reduce
  increase in caspase-3 activity caused by zinc toxicity: reduce
[10]
  Mean (% remaining activity): 5.3000%
[6]
  size of infarcted part: significantly reduces a size of an infracted part
[11]
  zinc neurotoxicity (TUNEL staining and LDH assay): significantly reduced

## O=C([O-])CN(CCN(CC(=O)[O-])CC(=O)[O-])CC(=O)[O-].[Ca+2].[Na+].[Na+] [CaEDTA]
[4]
  neurotoxicity caused by hydrogen peroxide: significantly reduced toxicity
